The assay addresses LRRK2 G2019S (Homo sapiens, UniProt Q5S007, G2019S). The assay can be described thus: LRRK2 G2019S Km ATP LanthaScreen assay. It is filed as biochemical. The settings on record: read-out: LRRK2 pIC50 (converted). (Time-resolved FRET reads energy transfer from a long-lived donor to a nearby acceptor.)
LRRK2 G2019S, sequence (Q5S007 whole entry G2019S): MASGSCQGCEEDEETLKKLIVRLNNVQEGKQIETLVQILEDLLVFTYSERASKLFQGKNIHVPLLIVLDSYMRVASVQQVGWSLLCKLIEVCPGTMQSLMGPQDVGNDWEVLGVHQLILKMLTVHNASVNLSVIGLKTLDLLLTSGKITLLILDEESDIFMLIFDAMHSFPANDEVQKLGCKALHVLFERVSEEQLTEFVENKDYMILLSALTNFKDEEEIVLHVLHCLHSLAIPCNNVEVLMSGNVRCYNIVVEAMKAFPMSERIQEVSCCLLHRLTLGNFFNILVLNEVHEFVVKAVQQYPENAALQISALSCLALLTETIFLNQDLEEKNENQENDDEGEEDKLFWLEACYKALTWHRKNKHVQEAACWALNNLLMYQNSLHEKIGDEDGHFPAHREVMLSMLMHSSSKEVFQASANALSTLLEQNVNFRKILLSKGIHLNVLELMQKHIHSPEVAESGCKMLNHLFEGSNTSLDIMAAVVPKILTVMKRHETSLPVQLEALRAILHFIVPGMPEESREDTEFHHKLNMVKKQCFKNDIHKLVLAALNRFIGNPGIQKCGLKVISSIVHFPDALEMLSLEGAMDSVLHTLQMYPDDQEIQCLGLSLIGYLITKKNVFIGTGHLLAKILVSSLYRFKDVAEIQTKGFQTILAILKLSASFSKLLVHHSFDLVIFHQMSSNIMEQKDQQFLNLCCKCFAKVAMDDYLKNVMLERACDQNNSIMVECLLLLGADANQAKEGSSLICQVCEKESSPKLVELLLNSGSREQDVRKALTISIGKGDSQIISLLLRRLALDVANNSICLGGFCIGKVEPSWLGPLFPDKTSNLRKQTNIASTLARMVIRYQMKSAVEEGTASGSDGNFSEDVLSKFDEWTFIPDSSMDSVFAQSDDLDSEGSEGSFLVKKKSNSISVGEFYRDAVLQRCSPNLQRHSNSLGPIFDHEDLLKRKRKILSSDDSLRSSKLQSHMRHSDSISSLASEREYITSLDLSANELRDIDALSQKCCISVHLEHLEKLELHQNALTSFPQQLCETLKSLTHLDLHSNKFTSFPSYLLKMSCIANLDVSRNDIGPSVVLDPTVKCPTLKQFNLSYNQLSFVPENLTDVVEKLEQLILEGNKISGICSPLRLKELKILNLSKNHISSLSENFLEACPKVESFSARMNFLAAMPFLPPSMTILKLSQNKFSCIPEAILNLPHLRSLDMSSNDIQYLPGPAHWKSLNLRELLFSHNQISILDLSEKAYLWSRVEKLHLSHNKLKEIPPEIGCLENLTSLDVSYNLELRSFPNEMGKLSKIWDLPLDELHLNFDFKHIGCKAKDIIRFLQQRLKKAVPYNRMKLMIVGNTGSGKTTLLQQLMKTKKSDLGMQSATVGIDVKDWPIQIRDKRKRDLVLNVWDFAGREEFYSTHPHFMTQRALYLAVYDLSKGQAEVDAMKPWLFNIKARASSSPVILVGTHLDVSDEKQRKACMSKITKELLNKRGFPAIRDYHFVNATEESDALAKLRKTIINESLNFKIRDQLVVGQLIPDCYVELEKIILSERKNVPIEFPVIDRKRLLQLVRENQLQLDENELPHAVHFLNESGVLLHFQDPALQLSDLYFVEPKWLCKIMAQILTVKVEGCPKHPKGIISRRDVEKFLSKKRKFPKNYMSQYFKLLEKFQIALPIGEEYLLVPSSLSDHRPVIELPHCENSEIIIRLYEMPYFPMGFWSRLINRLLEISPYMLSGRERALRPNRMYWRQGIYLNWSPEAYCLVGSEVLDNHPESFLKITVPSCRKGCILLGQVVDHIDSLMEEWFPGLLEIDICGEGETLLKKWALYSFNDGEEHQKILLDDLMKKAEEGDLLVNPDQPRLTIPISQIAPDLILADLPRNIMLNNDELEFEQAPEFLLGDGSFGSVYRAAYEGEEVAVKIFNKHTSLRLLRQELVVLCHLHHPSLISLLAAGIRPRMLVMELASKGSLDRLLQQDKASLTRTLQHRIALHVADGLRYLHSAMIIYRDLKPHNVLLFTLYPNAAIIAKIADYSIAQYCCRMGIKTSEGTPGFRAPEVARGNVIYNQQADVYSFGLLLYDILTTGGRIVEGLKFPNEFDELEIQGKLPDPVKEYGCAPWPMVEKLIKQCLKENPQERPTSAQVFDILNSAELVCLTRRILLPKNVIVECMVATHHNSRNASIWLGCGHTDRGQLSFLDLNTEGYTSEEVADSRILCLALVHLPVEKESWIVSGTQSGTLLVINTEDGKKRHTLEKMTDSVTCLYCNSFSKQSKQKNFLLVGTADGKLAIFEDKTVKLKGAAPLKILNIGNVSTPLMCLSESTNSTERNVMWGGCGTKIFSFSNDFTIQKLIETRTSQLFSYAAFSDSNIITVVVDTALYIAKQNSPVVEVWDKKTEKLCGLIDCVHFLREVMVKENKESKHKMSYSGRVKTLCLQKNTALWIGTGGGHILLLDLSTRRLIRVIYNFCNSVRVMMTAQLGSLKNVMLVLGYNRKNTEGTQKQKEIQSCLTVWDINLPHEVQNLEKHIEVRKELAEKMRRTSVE
As to `O=C(Nc1cc2cc(C3CCN(C4COCC4O)CC3)c(Cl)cc2cn1)C1CC12CCOC2` (single isomer, unassigned) [Ex-8.5, N-(7-chloro-6-(1-(4-hydroxytetrahydrofuran-3-yl)piperidin-4-yl)isoquinolin-3-yl)-5-oxaspiro[2.4]heptane-1-carboxamide], the IC50 was 0.1 nM.
To `O=C(Nc1cc2cc(C3CCN(C4COC4)CC3)c(Cl)cc2cn1)C1CC12CC2` (single isomer, unassigned) [Ex-9.2] belongs 1.45 nM; to `CC1CC1C(=O)Nc1cc2cc(C3CCN(C4COC4)CC3)c(Cl)cc2cn1` (single isomer, unassigned) [Ex-9.3, N-(7-chloro-6-(1-(oxetan-3-yl)piperidin-4-yl)isoquinolin-3-yl)-2-methylcyclopropane-1-carboxamide], 0.631 nM.
The value for `CC1CC1C(=O)Nc1cc2cc(C3CCN(C4COC4)CC3)c(Cl)cc2cn1` (single isomer, unassigned) [Ex-9.4, N-(7-chloro-6-(1-(oxetan-3-yl)piperidin-4-yl)isoquinolin-3-yl)-2-methylcyclopropane-1-carboxamide] was 5.75 nM; that for `CC1CC1C(=O)Nc1cc2cc(C3CCN(C4COC4)CC3)c(Cl)cc2cn1` (single isomer, unassigned) [Ex-9.5, N-(7-chloro-6-(1-(oxetan-3-yl)piperidin-4-yl)isoquinolin-3-yl)-2-methylcyclopropane-1-carboxamide] was 1.1 nM.
On to `CC1CC1C(=O)Nc1cc2cc(C3CCN(C4COC4)CC3)c(Cl)cc2cn1` (single isomer, unassigned) [Ex-9.6, N-(7-chloro-6-(1-(oxetan-3-yl)piperidin-4-yl)isoquinolin-3-yl)-2-methylcyclopropane-1-carboxamide], for which the IC50 is 8.91 nM.
Regarding `O=C(Nc1cc2cc(C3CCN(C4COC4)CC3)c(Cl)cc2cn1)C1CC12CCOCC2` (single isomer, unassigned) [Ex-9.7, N-(7-chloro-6-(1-(oxetan-3-yl)piperidin-4-yl)isoquinolin-3-yl)-6-oxaspiro[2.5]octane-1-carboxamide], the IC50 is 1.95 nM.
Turning to `O=C(Nc1cc2cc(C3CCN(C4COC4)CC3)c(Cl)cc2cn1)C1CC12CCOCC2` (single isomer, unassigned) [Ex-9.8, N-(7-chloro-6-(1-(oxetan-3-yl)piperidin-4-yl)isoquinolin-3-yl)-6-oxaspiro[2.5]octane-1-carboxamide], the IC50 is 19.1 nM.
In the case of `CC1OCCC1N1CCC(c2cc3cc(NC(=O)C4CC4)ncc3cc2Cl)CC1` (single isomer, unassigned) [Ex-9.9, N-(7-chloro-6-(1-(2-methyltetrahydrofuran-3-yl)piperidin-4-yl)isoquinolin-3-yl)cyclopropanecarboxamide], the IC50 is 5.62 nM.
The value for `CC1OCCC1N1CCC(c2cc3cc(NC(=O)C4CC4)ncc3cc2Cl)CC1` (single isomer, unassigned) [Ex-9.10, N-(7-chloro-6-(1-(2-methyltetrahydrofuran-3-yl)piperidin-4-yl)isoquinolin-3-yl)cyclopropanecarboxamide] was 38.9 nM; that for `COCC(C)c1cc2cc(NC(=O)C3CC34CCOCC4)ncc2cc1Cl` (single isomer, unassigned) [Ex-9.11, N-(7-chloro-6-(1-methoxypropan-2-yl)isoquinolin-3-yl)-6-oxaspiro[2.5]octane-1-carboxamide] was 44.7 nM.
To `COCC(C)c1cc2cc(NC(=O)C3CC34CCOCC4)ncc2cc1Cl` (single isomer, unassigned) [Ex-9.12, N-(7-chloro-6-(1-methoxypropan-2-yl)isoquinolin-3-yl)-6-oxaspiro[2.5]octane-1-carboxamide] belongs 35.5 nM.
In the case of `CCC1C(C(=O)Nc2cc3cc(C(C)COC)c(Cl)cc3cn2)C1c1cnn(C)c1` (single isomer, unassigned) [Ex-9.13, N-(7-chloro-6-(1-methoxypropan-2-yl)isoquinolin-3-yl)-2-ethyl-3-(1-methyl-1H-pyrazol-4-yl)cyclopropane-1-carboxamide], the IC50 was 6.92 nM.
As to `CCC1C(C(=O)Nc2cc3cc(C(C)COC)c(Cl)cc3cn2)C1c1cnn(C)c1` (single isomer, unassigned) [Ex-9.14, N-(7-chloro-6-(1-methoxypropan-2-yl)isoquinolin-3-yl)-2-ethyl-3-(1-methyl-1H-pyrazol-4-yl)cyclopropane-1-carboxamide], the IC50 was 1.17 nM.
To `CCC1C(C(=O)Nc2cc3cc(C(C)CC#N)c(Cl)cc3cn2)C1c1cnn(C)c1` (single isomer, unassigned) [Ex-9.15, N-(7-chloro-6-(1-cyanopropan-2-yl)isoquinolin-3-yl)-2-ethyl-3-(1-methyl-1H-pyrazol-4-yl)cyclopropane-1-carboxamide] belongs 0.427 nM; to `CCC1C(C(=O)Nc2cc3cc(C(C)CC#N)c(Cl)cc3cn2)C1c1cnn(C)c1` (single isomer, unassigned) [Ex-9.16, N-(7-chloro-6-(1-cyanopropan-2-yl)isoquinolin-3-yl)-2-ethyl-3-(1-methyl-1H-pyrazol-4-yl)cyclopropane-1-carboxamide], 1.82 nM.
With `COCC(C)c1cc2cc(NC(=O)C3CC3c3ccccn3)ncc2cc1Cl` (single isomer, unassigned) [Ex-9.19, N-(7-chloro-6-(1-methoxypropan-2-yl)isoquinolin-3-yl)-2-(pyridin-2-yl)cyclopropane-1-carboxamide], the IC50 is 11 nM.
Take `COCC(C)c1cc2cc(NC(=O)C3CC3c3ccccn3)ncc2cc1Cl` (single isomer, unassigned) [Ex-9.20, N-(7-chloro-6-(1-methoxypropan-2-yl)isoquinolin-3-yl)-2-(pyridin-2-yl)cyclopropane-1-carboxamide]: the IC50 is 29.5 nM.
To `CC(CC#N)c1cc2cc(NC(=O)C3CC3c3ccccn3)ncc2cc1Cl` (single isomer, unassigned) [Ex-9.21, N-(7-chloro-6-(1-cyanopropan-2-yl)isoquinolin-3-yl)-2-(pyridin-2-yl)cyclopropane-1-carboxamide] belongs 26.3 nM; to `CC(CC#N)c1cc2cc(NC(=O)C3CC3c3ccccn3)ncc2cc1Cl` (single isomer, unassigned) [Ex-9.22, N-(7-chloro-6-(1-cyanopropan-2-yl)isoquinolin-3-yl)-2-(pyridin-2-yl)cyclopropane-1-carboxamide], 129 nM.
To `O=C(Nc1cc2cc(C3C4CCOCC43)c(Cl)cc2cn1)C1CC12CCOCC2` (single isomer, unassigned) [Ex-9.23, N-(6-(3-oxabicyclo[4.1.0]heptan-7-yl)-7-chloroisoquinolin-3-yl)-6-oxaspiro[2.5]octane-1-carboxamide] belongs 19.1 nM.
For the molecule `O=C(Nc1cc2cc(C3C4CCOCC43)c(Cl)cc2cn1)C1CC12CCOCC2` (single isomer, unassigned) [Ex-9.24, N-(6-(3-oxabicyclo[4.1.0]heptan-7-yl)-7-chloroisoquinolin-3-yl)-6-oxaspiro[2.5]octane-1-carboxamide], the IC50 was 6.61 nM.
In the case of `COC1CCC(C(=O)Nc2cc3cc(C4CCN(C5(C)COCC5O)CC4)c(Cl)cc3cn2)CC1` (single isomer, unassigned) [Ex-10.1, 1,4-trans, (3R,4R)- or 1,4-trans, (3S,4S)- or 1,4-cis, (3R,4R)- or 1,4-cis, (3S,4S)-N-(7-chloro-6-(1-(4-hydroxy-3-methyltetrahydrofuran-3-yl)piperidin-4-yl)isoquinolin-3-yl)-4-methoxycyclohexane-1-carboxamide], the IC50 is 10.5 nM.
On to `COC1CCC(C(=O)Nc2cc3cc(C4CCN(C5(C)COCC5O)CC4)c(Cl)cc3cn2)CC1` (single isomer, unassigned) [Ex-10.2, 1,4-trans, (3R,4R)- or 1,4-trans, (3S,4S)- or 1,4-cis, (3R,4R)- or 1,4-cis, (3S,4S)-N-(7-chloro-6-(1-(4-hydroxy-3-methyltetrahydrofuran-3-yl)piperidin-4-yl)isoquinolin-3-yl)-4-methoxycyclohexane-1-carboxamide], for which the IC50 was 46.8 nM.
Take `CC1C(C(=O)Nc2cc3cc(C4CCN(C5(C)COCC5O)CC4)c(Cl)cc3cn2)C12CCOCC2` (single isomer, unassigned) [Ex-10.5, N-(7-chloro-6-(1-(4-hydroxy-3-methyltetrahydrofuran-3-yl)piperidin-4-yl)isoquinolin-3-yl)-2-methyl-6-oxaspiro[2.5]octane-1-carboxamide]: the IC50 was 61.7 nM.
To `CC1C(C(=O)Nc2cc3cc(C4CCN(C5(C)COCC5O)CC4)c(Cl)cc3cn2)C12CCOCC2` (single isomer, unassigned) [Ex-10.6, N-(7-chloro-6-(1-(4-hydroxy-3-methyltetrahydrofuran-3-yl)piperidin-4-yl)isoquinolin-3-yl)-2-methyl-6-oxaspiro[2.5]octane-1-carboxamide] belongs 11 nM; to `CC1C(C(=O)Nc2cc3cc(C4CCN(C5(C)COCC5O)CC4)c(Cl)cc3cn2)C12CCOCC2` (single isomer, unassigned) [Ex-10.7, N-(7-chloro-6-(1-(4-hydroxy-3-methyltetrahydrofuran-3-yl)piperidin-4-yl)isoquinolin-3-yl)-2-methyl-6-oxaspiro[2.5]octane-1-carboxamide], 44.7 nM; to `CC1C(C(=O)Nc2cc3cc(C4CCN(C5(C)COCC5O)CC4)c(Cl)cc3cn2)C12CCOCC2` (single isomer, unassigned) [Ex-10.8, N-(7-chloro-6-(1-(4-hydroxy-3-methyltetrahydrofuran-3-yl)piperidin-4-yl)isoquinolin-3-yl)-2-methyl-6-oxaspiro[2.5]octane-1-carboxamide], 145 nM.
To `CC1(N2CCC(c3cc4cc(NC(=O)C5CC5C(F)F)ncc4cc3Cl)CC2)COCC1O` (single isomer, unassigned) [Ex-10.9, N-(7-chloro-6-(1-(4-hydroxy-3-methyltetrahydrofuran-3-yl)piperidin-4-yl)isoquinolin-3-yl)-2-(difluoromethyl)cyclopropane-1-carboxamide] belongs 7.24 nM.

Values taken from patent publication US20240398784A1, “C-LINKED ISOQUINOLINE AMIDES AS LRRK2 INHIBITORS, PHARMACEUTICAL COMPOSITIONS, AND USES THEREOF” (Merck Sharp & Dohme LLC, priority 2021, published 2024).
